{"source": "ChEMBL document CHEMBL1147158", "about": "“Novel selective neuropeptide Y2 receptor PEGylated peptide agonists reduce food intake and body weight in mice” (J Med Chem, 2007)", "key": {"[1]": {"molecular_target": "T1, Neuropeptide Y receptor type 2 (Homo sapiens, UniProt P49146)", "T1 sequence (P49146 whole entry)": "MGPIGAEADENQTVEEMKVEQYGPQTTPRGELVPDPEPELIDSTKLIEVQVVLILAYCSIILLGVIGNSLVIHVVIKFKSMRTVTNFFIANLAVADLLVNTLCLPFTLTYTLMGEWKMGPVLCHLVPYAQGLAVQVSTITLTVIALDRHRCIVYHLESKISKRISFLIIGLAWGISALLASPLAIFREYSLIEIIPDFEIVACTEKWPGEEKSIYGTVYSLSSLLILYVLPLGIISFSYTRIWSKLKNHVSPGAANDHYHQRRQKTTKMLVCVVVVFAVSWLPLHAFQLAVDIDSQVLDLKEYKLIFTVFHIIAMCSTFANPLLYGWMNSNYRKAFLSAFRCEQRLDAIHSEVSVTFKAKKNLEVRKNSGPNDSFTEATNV", "test": "Displacement of [125I]PYY from human NPY2"}, "[2]": {"molecular_target": "T2, Neuropeptide Y receptor type 5 (Homo sapiens, UniProt Q15761)", "T2 sequence (Q15761 whole entry)": "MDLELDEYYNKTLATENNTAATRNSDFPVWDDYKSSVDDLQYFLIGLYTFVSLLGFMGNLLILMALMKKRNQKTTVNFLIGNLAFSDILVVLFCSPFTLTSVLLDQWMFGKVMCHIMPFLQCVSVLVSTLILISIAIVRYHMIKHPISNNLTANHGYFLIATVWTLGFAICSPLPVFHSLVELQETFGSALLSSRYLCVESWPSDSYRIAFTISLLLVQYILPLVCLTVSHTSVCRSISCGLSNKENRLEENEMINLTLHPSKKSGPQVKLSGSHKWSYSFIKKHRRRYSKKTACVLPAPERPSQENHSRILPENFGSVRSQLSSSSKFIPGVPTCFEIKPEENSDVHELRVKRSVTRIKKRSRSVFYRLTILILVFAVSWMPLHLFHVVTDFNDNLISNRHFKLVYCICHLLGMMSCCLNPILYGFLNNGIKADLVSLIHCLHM", "test": "Displacement of [125I]PYY from human NPY5"}, "[3]": {"molecular_target": "T1, Neuropeptide Y receptor type 2", "test": "Agonist activity at human NPY2 by [35S]GTPgammaS […] assay", "type": "functional"}, "[4]": {"molecular_target": "T3, Neuropeptide Y receptor type 1 (Homo sapiens, UniProt P25929)", "T3 sequence (P25929 whole entry)": "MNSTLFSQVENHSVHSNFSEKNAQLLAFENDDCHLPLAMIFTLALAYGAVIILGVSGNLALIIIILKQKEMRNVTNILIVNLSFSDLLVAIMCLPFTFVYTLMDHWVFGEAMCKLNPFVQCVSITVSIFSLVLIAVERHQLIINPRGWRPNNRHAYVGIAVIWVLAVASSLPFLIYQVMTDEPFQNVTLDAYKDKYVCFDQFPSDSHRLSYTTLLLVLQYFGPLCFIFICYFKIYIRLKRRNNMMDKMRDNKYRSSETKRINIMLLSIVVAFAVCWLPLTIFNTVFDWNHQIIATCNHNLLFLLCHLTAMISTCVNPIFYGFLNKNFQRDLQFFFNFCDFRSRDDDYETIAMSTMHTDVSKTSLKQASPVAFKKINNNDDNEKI", "test": "Displacement of [125I]PYY from human NPY1"}}, "note": "Residues, ends and D or L forms follow the SMILES beside them. *: point of attachment. X1 = CSc1ncccc1C(=O)*"}
{"smiles": "CSc1ncccc1C(=O)N[C@@H](CCCNC(=N)N)C(=O)N[C@@H](Cc1cnc[nH]1)C(=O)N[C@@H](Cc1ccc(O)cc1)C(=O)N[C@@H](CC(C)C)C(=O)N[C@@H](CC(N)=O)C(=O)N[C@@H](CC(C)C)C(=O)N[C@@H](CC(C)C)C(=O)N[C@H](C(=O)N[C@@H](CCCNC(=N)N)C(=O)N[C@@H](CCC(N)=O)C(=O)N[C@@H](CCCNC(=N)N)C(=O)N[C@@H](Cc1ccc(O)cc1)C(N)=O)[C@@H](C)O", "note": "(X1-RHYLNLLTRQRY-NH2)", "values": [{"measurement": "Ki", "setting": "[1]", "value": "11 nM (antagonist)"}, {"measurement": "Ki", "setting": "[2]", "value": "> 1000", "unit": "nM"}, {"measurement": "EC50", "setting": "[3]", "value": "4 nM (agonist)"}, {"measurement": "Ki", "setting": "[4]", "value": "> 1000", "unit": "nM"}]}
